Assay results reported in patent US10532977B2, “Small molecule inhibitors of protein tyrosine phosphatases and uses thereof” (Indiana University Research and Technology Corporation, priority 2015, dated 2020).
pIC50: −log10 of the molar value. “Also recorded” adds a separate entry of the source. Values belong to the compound of their own block, whether it stands above or below them.

Tests used:
SHP2 [1] = target: T1, SHP2 (Homo sapiens, UniProt Q06124); assay: SHP2 inhibition, pNPP substrate; type: biochemical; settings: for mode of SHP2 inhibition: pNPP as substrate
T1 sequence (Q06124 224-528): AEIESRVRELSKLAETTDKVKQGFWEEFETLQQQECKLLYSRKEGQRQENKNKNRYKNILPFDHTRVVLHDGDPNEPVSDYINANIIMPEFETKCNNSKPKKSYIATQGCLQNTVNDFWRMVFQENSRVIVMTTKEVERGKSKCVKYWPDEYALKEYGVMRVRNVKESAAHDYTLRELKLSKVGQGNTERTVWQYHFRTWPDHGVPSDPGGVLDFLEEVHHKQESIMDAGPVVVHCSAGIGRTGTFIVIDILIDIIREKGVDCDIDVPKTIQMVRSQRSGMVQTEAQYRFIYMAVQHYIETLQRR

[2] = Stability in buffer solutions by LC-MS; type: physicochemical
Description: (§1) Agilent Technologies 6130 quadrupole LC-MS instrument was used for the LC-MS studies. A C18 reserved phase column (phenomenex, 50×4.6 mm) was used as stationary phase, water and methanol (both containing 0.1% formic acid) were used as mobile phase (gradient: 0-100% methanol, flow 0 8 ml/min, run time 15 minutes), and UV absorbance at the fixed wavelength of 254 nm and positive and negative ESI-MS data were recorded. The sample was adjusted to have a concentration at 0.1 mg/mL, and the injection volume of each sample was 0.2 μL. The retention time and corresponding ESI-MS data were used as identity of molecules.

SHP2/R362A = SHP2/R362A (Homo sapiens, UniProt Q06124, R362A); assay: SHP2/R362A mutant inhibition, pNPP substrate; type: biochemical; settings: vs wild-type SHP2
Description: Protein expression and purification. […] These proteins were expressed in E. coli BL21(DE3) and purified with Ni-NTA resin (Qiagen). The SHP2 catalytic domain (residues 262-528) used for crystallization was expressed in E. coli BL21(DE3) and purified by Ni-NTA agarose (Qiagen) followed by sequential chromatography of HiPrep 26 desalting column (GE Healthcare), and cation exchange column packed with SP sepharose (GE Healthcare). Protein purity was determined to be greater than 95% by SDS-PAGE and Coomassie blue staining.
Enzyme kinetics and inhibition studies. The SHP2 phosphatase activity was assayed in 96-well plates using pNPP as a substrate at 25° C. in 50 mM 3,3-dimethylglutarate (DMG) buffer (pH=7.0), containing 1 mM EDTA with an ionic strength of 0.15 M adjusted by NaCl. The FDA-approved drug collection or the SPAA based libraries were screened in a 96-well format at two different compound concentrations (10 and 20 μM for FDA drugs and 10 and 1 μM for the SPAA libraries). […] The amount of product, p-nitrophenol, was determined from the absorbance at 405 nm detected by a Spectra MAX340 microplate spectrophotometer (Molecular Devices) using a molar extinction coefficient of 18,000 M^−1 cm^−1. […] The Michaelis-Menten kinetic parameters kcat and Km were determined from a direct fit of the velocity versus substrate concentration data to Michaelis-Menten equation using SigmaPlot program.

SHP2 [3] = target: SHP2 (Homo sapiens, UniProt Q06124); assay: Covalent adduct formation with SHP2, QTOF ESI-MS / LC-MS; settings: pH 7, cefsulodin 3 hours, PVS 10 minutes
Description: Characterization of cefsulodin-mediated SHP2 inhibition by Q-TOF ESI-MS, LC-MS, and HPLC. Agilent 6520 Accurate-Mass was used for the Q-TOF ESI-MS studies. Water and acetonitrile (both containing 0.1% formic acid) were used as eluent (80% water, flow 50 μL/min, run time 5 minutes). ESI positive mode was used with mass range from 300 to 1700, the gas temperature was 325° C., and vaporizer temperature was: […] The sample was adjusted to have a concentration at 0.1 mg/mL, the injection volume of each sample was 1 μL. Mass hunter software was used for protein deconvolution data analysis to calculate the molecular weight of the protein.
as §1

[4] = tested on: EGF-mediated ERK1/2 phosphorylation; assay: EGF-mediated ERK1/2 phosphorylation, immunoblot, H1975 cells; type: cell-based, human; settings: compound 7 at 40 μM
Description: (§2) Cell proliferation and immunoblot analysis. Human non-small cell lung carcinoma cell line H1975 was cultured at 37° C. and 5% CO2 in RPMI-1640 (Corning) supplemented with 10% fetal bovine serum (HyClone). Human breast cancer cell line MDA-MB-231 was cultured in DMEM supplemented with 10% fetal bovine serum. For cell proliferation assay, 2˜3×10^3 cells were seeded in each well of 96-well plates. After treating cells with compounds for 2 days, cells were incubated with 50 µg/ml MTT (3-(4,5-Dimethylthiazol-2-yl)-2,5-diphenyltetrazolium bromide) for ˜3-4 hours. Then, the culture medium was removed, DMSO was added to dissolve the formazan crystals. Wells containing only media were used for background correction. The optical density was measured spectrophotometrically at 540 nm. For signaling analysis, cells were serum-starved overnight followed by treatment with vehicle or compounds for 3 hours, and then either left un-stimulated or stimulated with 5 μg/ml EGF or 10 nM PMA (Sigma) for indicated time. Cells were lysed and the lysates were electrophoresed on a 10% polyacrylamide gel, and then transferred to a nitrocellulose membrane, and probed with anti-phospho-ERK1/2 and anti-ERK1/2 (Cell Signaling) antibodies followed by incubation with horseradish peroxidase-conjugated secondary antibodies. […]

[5] = tested on: PMA-induced ERK1/2 phosphorylation; assay: PMA-induced ERK1/2 phosphorylation, immunoblot; type: cell-based, human
Description: as §2

SKBR3 cells = assay: SKBR3 cell growth and ERK1/2 in Matrigel; type: cell-based, human; settings: 5 days
Description: SHP2 inhibitor 2 effects on cell growth in Matrigel. Approximately 300,000 SKBR3 cells were seeded into 150 µL of growth factor reduced Matrigel (BD) that was then covered with 2 mLs of media containing either 20 µL vehicle (DMSO) or the indicated concentrations of compound 2. Cells were then imaged at 24-hour intervals using a NIKON SMZ1500 stereomicroscope. After 5 days the cells were recovered from the Matrigel by the following method. Media was aspirated and cells were washed with 500 µL of cold PBS. 150 µL of RIPA lysis buffer supplemented with ProteCEASE-50. EDTA Free protease inhibitors (GBiosciences) was added to the Matrigel. Cells were scraped into a slurry and instantly frozen using dry ice for 5 minutes. After thawing tubes were spun down at 4° C. for 10 minutes at 14K rpm. Proteins were then resolved by SDS-PAGE and the relative levels of total and phospho-ERK1/2 were detected by immunoblot analysis.

LAR = LAR (Homo sapiens, UniProt P10586); assay: LAR inhibition, pNPP substrate; type: biochemical; settings: pNPP at Km, pH 7.0, 25° C.
PTPσ = PTPσ (Homo sapiens, UniProt Q13332); assay: PTPσ inhibition, pNPP substrate; type: biochemical; settings: pH 7
HePTP = HePTP (Homo sapiens, UniProt P35236); assay: HePTP inhibition, pNPP substrate; type: biochemical; settings: pNPP at Km, pH 7.0, 25° C.
PTP1B = PTP1B (Homo sapiens, UniProt P18031); assay: PTP1B inhibition, pNPP substrate; type: biochemical; settings: pNPP at Km, pH 7.0, 25° C.
Meg2 = Meg2 (Homo sapiens, UniProt P43378); assay: Meg2 inhibition, pNPP substrate; type: biochemical; settings: pNPP at Km, pH 7.0, 25° C.
PP5 = PP5 (Homo sapiens, UniProt P53041); assay: PP5 inhibition, pNPP substrate; type: biochemical, mammalian; settings: pNPP at Km, pH 7.0, 25° C.
FAP1 = FAP1 (Homo sapiens, UniProt Q12923); assay: FAP1 inhibition, pNPP substrate; type: biochemical; settings: pH 7
Chain of FAP1 (Q12923 whole entry): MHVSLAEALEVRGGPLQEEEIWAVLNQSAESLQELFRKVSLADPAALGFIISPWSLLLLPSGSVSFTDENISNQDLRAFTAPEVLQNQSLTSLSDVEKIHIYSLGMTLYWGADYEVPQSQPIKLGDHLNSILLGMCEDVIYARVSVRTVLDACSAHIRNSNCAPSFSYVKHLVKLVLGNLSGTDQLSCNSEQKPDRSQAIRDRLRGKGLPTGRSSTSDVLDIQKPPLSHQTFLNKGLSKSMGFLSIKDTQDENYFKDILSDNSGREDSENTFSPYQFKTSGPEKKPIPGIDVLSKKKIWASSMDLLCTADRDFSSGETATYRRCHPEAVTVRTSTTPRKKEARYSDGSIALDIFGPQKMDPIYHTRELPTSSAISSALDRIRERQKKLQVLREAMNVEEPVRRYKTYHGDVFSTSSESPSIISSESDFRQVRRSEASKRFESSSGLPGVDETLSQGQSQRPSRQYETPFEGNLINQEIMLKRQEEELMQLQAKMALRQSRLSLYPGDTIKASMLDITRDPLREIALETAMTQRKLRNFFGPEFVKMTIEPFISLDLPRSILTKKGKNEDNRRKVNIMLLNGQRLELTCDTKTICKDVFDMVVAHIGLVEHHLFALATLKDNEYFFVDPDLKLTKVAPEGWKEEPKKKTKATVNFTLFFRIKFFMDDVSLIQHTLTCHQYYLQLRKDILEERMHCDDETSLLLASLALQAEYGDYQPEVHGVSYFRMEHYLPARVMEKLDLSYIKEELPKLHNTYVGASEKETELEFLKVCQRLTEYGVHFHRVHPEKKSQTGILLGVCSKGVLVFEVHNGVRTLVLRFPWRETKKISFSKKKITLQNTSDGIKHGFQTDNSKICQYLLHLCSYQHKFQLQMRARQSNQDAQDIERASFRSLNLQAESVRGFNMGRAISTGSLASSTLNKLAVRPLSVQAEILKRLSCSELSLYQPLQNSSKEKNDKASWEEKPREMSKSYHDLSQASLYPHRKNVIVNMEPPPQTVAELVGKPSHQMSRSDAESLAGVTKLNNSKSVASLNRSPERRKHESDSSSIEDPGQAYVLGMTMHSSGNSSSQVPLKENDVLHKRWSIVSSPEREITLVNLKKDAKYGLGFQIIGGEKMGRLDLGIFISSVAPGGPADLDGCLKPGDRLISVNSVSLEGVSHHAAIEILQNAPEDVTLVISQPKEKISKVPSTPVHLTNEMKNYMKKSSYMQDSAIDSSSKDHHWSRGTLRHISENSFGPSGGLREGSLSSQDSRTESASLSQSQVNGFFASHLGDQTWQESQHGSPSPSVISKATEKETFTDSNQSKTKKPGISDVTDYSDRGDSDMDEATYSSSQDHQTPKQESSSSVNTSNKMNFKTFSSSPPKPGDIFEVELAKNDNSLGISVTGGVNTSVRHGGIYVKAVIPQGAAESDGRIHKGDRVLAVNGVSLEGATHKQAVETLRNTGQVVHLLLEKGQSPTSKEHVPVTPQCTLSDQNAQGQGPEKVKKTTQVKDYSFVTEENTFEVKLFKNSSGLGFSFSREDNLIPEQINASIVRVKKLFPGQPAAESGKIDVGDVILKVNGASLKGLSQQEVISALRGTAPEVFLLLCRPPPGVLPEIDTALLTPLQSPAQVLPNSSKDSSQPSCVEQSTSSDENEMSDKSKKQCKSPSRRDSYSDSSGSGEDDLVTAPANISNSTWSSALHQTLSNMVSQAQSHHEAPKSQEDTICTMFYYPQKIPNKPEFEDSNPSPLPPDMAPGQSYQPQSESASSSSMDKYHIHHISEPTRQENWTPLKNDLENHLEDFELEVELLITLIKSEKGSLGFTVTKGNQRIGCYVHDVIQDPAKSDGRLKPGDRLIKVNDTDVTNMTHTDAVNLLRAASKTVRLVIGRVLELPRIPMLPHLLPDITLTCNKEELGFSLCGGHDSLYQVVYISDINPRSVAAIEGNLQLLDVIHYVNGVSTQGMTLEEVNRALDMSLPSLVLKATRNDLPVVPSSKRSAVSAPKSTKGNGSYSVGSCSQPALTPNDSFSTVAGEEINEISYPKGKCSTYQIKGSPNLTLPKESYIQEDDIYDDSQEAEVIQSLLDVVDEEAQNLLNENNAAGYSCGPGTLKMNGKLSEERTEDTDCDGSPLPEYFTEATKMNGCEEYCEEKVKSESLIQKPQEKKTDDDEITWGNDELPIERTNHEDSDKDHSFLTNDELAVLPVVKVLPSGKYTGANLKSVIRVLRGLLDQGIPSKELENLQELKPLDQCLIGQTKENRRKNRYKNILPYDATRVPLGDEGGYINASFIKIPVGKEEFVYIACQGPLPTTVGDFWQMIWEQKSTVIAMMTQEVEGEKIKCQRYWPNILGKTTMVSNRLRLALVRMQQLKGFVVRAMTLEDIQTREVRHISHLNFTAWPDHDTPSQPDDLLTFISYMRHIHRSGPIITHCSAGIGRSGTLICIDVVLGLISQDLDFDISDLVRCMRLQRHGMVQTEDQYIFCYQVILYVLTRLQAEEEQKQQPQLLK

CDC14A = CDC14A (Homo sapiens, UniProt Q9UNH5); assay: CDC14A inhibition, pNPP substrate; type: biochemical; settings: pNPP at Km, pH 7.0, 25° C.
Ssu72 = target: T2, Ssu72 (Homo sapiens, UniProt Q9NP77); assay: Ssu72 inhibition, pNPP substrate; type: biochemical; settings: pH 7
T2 construct: made in house

LYP = LYP (Homo sapiens, UniProt Q9Y2R2); assay: LYP inhibition, pNPP substrate; type: biochemical; settings: pNPP at Km, pH 7.0, 25° C.
PTPμ = PTPμ (Homo sapiens, UniProt P28827); assay: PTPμ inhibition, pNPP substrate; type: biochemical, mammalian; settings: pNPP at Km, pH 7.0, 25° C.
PTPα = PTPα (Homo sapiens, UniProt P18433); assay: PTPα inhibition, pNPP substrate; type: biochemical; settings: pNPP at Km, pH 7.0, 25° C.
PTPε = PTPε (Homo sapiens, UniProt P23469); assay: PTPε inhibition, pNPP substrate; type: biochemical, mammalian; settings: pNPP at Km, pH 7.0, 25° C.
PTPβ = PTPβ (Homo sapiens, UniProt P23467); assay: PTPβ inhibition, pNPP substrate; type: biochemical, mammalian; settings: pNPP at Km, pH 7.0, 25° C.
Chain of PTPβ (P23467 23-1997): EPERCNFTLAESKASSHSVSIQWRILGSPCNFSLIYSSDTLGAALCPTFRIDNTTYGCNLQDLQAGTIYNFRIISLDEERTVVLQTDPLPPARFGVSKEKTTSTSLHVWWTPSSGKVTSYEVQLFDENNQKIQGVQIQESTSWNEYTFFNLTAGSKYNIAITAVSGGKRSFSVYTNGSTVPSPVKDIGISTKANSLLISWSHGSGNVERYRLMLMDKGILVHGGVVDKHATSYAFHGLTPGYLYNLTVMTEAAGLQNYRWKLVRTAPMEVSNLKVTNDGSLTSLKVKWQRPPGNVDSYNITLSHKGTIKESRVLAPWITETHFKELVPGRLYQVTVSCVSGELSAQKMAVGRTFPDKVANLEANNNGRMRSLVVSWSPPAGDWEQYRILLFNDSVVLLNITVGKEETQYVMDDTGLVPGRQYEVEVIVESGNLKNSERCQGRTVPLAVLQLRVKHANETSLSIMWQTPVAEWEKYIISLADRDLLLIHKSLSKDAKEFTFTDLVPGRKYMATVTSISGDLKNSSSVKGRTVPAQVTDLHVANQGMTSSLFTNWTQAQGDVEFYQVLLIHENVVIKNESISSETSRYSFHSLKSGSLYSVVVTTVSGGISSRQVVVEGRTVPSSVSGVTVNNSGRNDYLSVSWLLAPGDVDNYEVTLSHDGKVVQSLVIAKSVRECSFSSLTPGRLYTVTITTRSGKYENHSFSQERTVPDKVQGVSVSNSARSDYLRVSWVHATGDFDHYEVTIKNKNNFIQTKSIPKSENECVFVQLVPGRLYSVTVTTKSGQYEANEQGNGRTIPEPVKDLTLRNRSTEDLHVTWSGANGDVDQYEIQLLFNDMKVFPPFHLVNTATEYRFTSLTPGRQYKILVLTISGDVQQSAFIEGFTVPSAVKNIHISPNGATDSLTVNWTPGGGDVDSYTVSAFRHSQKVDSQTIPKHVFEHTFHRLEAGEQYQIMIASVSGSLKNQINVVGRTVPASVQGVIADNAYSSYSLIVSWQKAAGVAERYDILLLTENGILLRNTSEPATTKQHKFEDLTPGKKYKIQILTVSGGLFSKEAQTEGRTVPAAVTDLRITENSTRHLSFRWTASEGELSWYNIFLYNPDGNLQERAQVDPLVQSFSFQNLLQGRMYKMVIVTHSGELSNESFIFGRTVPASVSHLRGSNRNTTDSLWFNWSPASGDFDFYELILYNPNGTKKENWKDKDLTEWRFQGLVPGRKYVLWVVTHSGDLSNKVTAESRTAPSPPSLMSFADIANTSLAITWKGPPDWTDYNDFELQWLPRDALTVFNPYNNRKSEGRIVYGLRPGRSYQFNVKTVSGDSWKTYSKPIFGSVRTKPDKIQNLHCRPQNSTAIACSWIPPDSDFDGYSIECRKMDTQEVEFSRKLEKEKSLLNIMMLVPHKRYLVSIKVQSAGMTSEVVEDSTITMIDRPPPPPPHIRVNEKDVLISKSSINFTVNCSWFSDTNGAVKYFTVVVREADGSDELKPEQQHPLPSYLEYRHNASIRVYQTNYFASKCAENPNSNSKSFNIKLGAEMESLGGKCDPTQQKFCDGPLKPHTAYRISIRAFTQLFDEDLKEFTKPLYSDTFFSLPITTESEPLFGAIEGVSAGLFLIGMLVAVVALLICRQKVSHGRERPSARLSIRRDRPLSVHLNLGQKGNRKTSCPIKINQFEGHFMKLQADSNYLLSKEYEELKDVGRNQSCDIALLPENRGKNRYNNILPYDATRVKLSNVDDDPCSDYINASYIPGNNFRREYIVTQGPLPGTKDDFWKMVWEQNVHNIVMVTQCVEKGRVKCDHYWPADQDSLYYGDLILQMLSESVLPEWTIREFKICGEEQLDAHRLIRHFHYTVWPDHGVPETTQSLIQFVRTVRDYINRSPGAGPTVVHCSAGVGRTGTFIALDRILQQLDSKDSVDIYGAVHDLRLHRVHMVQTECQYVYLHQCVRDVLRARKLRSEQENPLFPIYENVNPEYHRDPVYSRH

SHP1 = SHP1 (Homo sapiens, UniProt P29350); assay: SHP1 inhibition, pNPP substrate; type: biochemical; settings: pNPP at Km, pH 7.0, 25° C.
CD45 = CD45 (Homo sapiens, UniProt P08575); assay: CD45 inhibition, pNPP substrate; type: biochemical; settings: pNPP at Km, pH 7.0, 25° C.
PTPγ = PTPγ (Homo sapiens, UniProt P23470); assay: PTPγ inhibition, pNPP substrate; type: biochemical; settings: pNPP at Km, pH 7.0, 25° C.
VHZ = target: T3, VHZ (Homo sapiens, UniProt Q9BVJ7); assay: VHZ inhibition, pNPP substrate; type: biochemical; settings: pNPP at Km, pH 7.0, 25° C.
T3 construct: made in house
T3 sequence (Q9BVJ7 whole entry, species assumed): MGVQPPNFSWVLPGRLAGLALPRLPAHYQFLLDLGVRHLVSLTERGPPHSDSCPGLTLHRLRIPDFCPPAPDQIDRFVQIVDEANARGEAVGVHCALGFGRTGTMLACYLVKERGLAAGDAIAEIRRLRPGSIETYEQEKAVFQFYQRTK

VHR = VHR (Homo sapiens, UniProt P51452); assay: VHR inhibition, pNPP substrate; type: biochemical; settings: pNPP at Km, pH 7.0, 25° C.
TcPTP = TcPTP (Homo sapiens, UniProt P17706); assay: TcPTP inhibition, pNPP substrate; type: biochemical; settings: pH 7
MKP3 = MKP3 (Homo sapiens, UniProt Q16828); assay: MKP3 inhibition, pNPP substrate; type: biochemical; settings: pH 7
Chain of MKP3 (Q16828 whole entry): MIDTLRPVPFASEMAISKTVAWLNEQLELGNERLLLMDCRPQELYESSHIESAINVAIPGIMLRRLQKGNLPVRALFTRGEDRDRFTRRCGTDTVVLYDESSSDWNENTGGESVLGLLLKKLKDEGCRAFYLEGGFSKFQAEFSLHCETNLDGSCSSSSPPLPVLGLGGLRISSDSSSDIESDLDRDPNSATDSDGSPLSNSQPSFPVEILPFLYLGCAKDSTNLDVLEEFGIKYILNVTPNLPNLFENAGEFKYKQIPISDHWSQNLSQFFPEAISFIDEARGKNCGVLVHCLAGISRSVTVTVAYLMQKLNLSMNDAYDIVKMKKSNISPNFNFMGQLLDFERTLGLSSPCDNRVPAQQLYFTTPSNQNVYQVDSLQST

PEST = PEST (Homo sapiens, UniProt Q05209); assay: PEST inhibition, pNPP substrate; type: biochemical
Laforin = target: T4, Laforin (Homo sapiens, UniProt O95278); assay: Laforin inhibition, pNPP substrate; type: biochemical
T4 sequence (O95278 1-331): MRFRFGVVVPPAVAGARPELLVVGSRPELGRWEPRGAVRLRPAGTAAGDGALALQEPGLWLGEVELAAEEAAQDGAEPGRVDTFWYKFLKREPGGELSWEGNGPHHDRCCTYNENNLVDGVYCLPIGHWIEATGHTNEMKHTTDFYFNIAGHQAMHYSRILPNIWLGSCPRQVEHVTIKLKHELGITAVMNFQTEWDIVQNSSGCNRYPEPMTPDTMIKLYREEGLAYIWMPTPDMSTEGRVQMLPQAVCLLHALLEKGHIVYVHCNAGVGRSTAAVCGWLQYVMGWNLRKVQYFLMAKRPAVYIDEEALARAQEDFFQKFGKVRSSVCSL

LMWPTP = LMWPTP (Homo sapiens, UniProt P24666); assay: biochemical

SMILES: NC(=O)c1cc[n+](CC2=C(C(=O)O)N3C(=O)[C@@H](NC(=O)[C@@H](c4ccccc4)S(=O)(=O)[O-])[C@H]3SC2)cc1 [Cefsulodin]
mode of SHP2 inhibition (SHP2 [1]): competitive inhibitor
mode of SHP2 inhibition (SHP2 [1]; listed as cefsulodin): competitive and reversible
stability in crystallization solution (final pH=7.1) ([2]; 20° C., with SHP2 and DTT): completely degraded within 2 days; also recorded: the majority of cefsulodin was gone after 2 d
stability in CBTP buffer at pH 9.1 ([2]; 3 h, 6 h, 12 h): degradation was further accelerated; also recorded: cefsulodin was gone after 12 h
stability in pH 5.8 MES buffer ([2]; 12 h, 1 d, 2 d): degradation of cefsulodin was negligible; also recorded: stable for at least 2 days
stability in pH 7.4 CBTP buffer ([2]; 12 h, 1 d, 2 d): degradation was obvious; also recorded: cefsulodin concentrations decreased progressively
stability under inhibition assay conditions ([2]; pH 7 and 25° C., 0 h, 3 h, 24 h and 48 h): no change in cefsulodin
increase of IC50 by replacement of R362 with alanine (SHP2/R362A): 3 fold
covalent adduct formation with SHP2 (SHP2 [3]): no covalent adduct formation; also recorded: not inhibiting SHP2 by covalent modification

SMILES: O=C(Nc1ccc(I)cc1)C(=O)Nc1ccc(NC(=O)C(c2ccccc2)S(=O)(=O)O)cc1 (stereo not shown) [Compound 2, 2-((4-(2-((4-iodophenyl)amino)-2-oxoacetamido)phenyl)amino)-2-oxo-1-phenylethanesulfonic acid]
EGF-mediated ERK1/2 phosphorylation in H1975 cells [4]: reduced EGF-mediated ERK1/2 phosphorylation in a dose-dependent manner; also recorded: decrease the EGF-mediated ERK1/2 phosphorylation in a dose dependent manner
PMA-induced ERK1/2 phosphorylation [5]: no effect
ERK1/2 activity in SKBR3 cells in Matrigel at 20 μM (SKBR3 cells; 20 μM): partial inhibition
SKBR3 cell growth in Matrigel at 20 μM (SKBR3 cells; 20 μM): partial inhibition
ERK1/2 activity in SKBR3 cells in Matrigel at 40 μM (SKBR3 cells; 40 μM): barely detectable
SKBR3 cell growth in Matrigel at 40 μM (SKBR3 cells; 40 μM): almost completely absent

SMILES: Cc1c(Br)cc(NC(=O)C(c2ccccc2)S(=O)(=O)O)cc1Br (stereo not shown) [Compound L319M34]
pIC50 (SHP2 [1]; pNPP at Km, pH 7.0, 25° C.): < 3.70
pIC50 (LAR): < 3.70
pIC50 (PTPσ): < 3.70
pIC50 (HePTP): < 3.70
pIC50 (PTP1B): < 3.70
pIC50 (Meg2): < 3.70
pIC50 (PP5): < 3.70
pIC50 (FAP1): < 3.70
pIC50 (CDC14A): < 3.70
pIC50 (Ssu72): < 3.70
pIC50 (LYP): < 3.70
pIC50 (PTPμ): < 3.70
pIC50 (PTPα): < 3.70
pIC50 (PTPε): < 3.70
pIC50 (PTPβ): < 3.70
pIC50 (SHP1): < 3.70
pIC50 (CD45): < 3.70
pIC50 (PTPγ): < 3.70
pIC50 (VHZ): < 3.70
pIC50 (VHR): < 3.70
pIC50 (TcPTP): < 3.70
pIC50 (MKP3): < 3.70

pIC50 (PEST): 4.58
pIC50 (Laforin): 5.66
pIC50 (LMWPTP): 4.63
SMILES: O=C(Nc1nnc(-c2ccc(Br)cc2)s1)C(c1ccccc1)S(=O)(=O)O (stereo not shown) [Compound L319M79]
